How the values were obtained:
[1] = molecular target: Disintegrin and metalloproteinase domain-containing protein 17 (Homo sapiens, UniProt P78536); assay: Inhibition of TACE by FRET assay
[2] = molecular target: 72 kDa type IV collagenase (Homo sapiens, UniProt P08253); assay: Inhibition of MMP2 by […] assay
Collagenase 3 = Collagenase 3 (Homo sapiens, UniProt P45452); assay: Inhibition of MMP13 by […] assay
[3] = molecular target: Matrix metalloproteinase-14 (Homo sapiens, UniProt P50281); assay: Inhibition of MMP14 by […] assay
Interstitial collagenase = molecular target: T1, Interstitial collagenase (Homo sapiens, UniProt P03956); assay: Inhibition of MMP1 by FRET assay
T1 sequence (P03956 whole entry): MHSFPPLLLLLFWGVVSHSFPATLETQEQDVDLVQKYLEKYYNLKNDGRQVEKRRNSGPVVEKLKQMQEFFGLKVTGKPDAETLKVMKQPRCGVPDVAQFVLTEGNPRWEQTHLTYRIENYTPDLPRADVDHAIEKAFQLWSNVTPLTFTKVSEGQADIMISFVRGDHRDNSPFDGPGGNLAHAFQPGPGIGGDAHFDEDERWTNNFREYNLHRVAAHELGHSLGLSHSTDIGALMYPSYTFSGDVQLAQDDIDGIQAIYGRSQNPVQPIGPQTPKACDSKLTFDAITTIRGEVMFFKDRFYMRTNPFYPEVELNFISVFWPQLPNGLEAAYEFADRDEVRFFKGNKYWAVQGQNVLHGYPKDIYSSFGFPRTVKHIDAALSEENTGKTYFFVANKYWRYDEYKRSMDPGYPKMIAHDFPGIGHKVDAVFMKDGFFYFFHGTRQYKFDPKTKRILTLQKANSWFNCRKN

[4] = molecular target: Disintegrin and metalloproteinase domain-containing protein 17 (Mus musculus, UniProt Q9Z0F8); assay: Inhibition of TACE in mouse Raw264.7 cells assessed as inhibition of LPS-induced TNFalpha production treated 1 hr before LPS challenge measured 4 hrs post LPS challenge; assay type: cell-based
Chain of Disintegrin and metalloproteinase domain-containing protein 17 (Mus musculus, UniProt Q9Z0F8) (Q9Z0F8 whole entry, the tested form may be a part): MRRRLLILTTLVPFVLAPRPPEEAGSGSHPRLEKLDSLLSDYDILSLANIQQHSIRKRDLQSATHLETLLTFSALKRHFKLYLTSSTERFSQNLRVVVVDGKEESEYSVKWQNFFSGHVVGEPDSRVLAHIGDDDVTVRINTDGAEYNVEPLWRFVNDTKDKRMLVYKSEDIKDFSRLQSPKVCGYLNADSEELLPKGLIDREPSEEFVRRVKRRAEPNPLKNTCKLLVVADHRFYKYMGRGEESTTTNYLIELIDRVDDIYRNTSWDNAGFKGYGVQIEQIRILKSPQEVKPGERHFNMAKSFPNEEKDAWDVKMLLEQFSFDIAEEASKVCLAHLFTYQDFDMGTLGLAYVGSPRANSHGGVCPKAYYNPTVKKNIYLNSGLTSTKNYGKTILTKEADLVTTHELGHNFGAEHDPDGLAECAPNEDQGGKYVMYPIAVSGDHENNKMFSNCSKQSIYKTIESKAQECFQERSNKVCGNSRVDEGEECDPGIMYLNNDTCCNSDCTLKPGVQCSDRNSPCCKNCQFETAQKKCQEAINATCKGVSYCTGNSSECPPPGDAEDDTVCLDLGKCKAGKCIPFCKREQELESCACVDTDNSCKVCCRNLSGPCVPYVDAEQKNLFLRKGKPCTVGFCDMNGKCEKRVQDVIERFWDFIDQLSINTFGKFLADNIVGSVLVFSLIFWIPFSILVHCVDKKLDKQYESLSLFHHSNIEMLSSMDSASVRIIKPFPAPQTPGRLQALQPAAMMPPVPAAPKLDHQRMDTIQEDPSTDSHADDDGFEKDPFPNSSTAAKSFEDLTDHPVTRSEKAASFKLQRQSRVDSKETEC

Chain of Disintegrin and metalloproteinase domain-containing protein 17 (Homo sapiens, UniProt P78536) (P78536 whole entry, the tested form may be a part): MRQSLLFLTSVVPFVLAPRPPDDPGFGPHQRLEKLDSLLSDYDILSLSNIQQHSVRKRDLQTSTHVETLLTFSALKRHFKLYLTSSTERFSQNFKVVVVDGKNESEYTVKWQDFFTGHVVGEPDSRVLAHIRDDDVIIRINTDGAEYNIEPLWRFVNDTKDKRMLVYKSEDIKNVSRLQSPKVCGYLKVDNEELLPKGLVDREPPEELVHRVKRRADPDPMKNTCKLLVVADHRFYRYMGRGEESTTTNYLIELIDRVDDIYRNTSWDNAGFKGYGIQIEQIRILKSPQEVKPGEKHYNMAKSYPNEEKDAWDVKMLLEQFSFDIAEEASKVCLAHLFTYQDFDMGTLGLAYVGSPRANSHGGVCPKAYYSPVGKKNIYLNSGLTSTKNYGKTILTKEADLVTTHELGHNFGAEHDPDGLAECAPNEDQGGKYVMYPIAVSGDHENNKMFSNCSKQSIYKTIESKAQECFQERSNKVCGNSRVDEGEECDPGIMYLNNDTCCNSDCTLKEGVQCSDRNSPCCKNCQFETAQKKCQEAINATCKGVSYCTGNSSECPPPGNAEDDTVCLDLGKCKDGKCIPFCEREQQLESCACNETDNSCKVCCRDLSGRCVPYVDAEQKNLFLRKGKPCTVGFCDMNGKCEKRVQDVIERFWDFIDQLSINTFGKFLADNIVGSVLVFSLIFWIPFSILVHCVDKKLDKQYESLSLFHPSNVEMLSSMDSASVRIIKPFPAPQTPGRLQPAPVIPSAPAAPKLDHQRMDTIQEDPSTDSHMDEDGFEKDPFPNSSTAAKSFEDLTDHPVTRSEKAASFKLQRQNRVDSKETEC
Chain of 72 kDa type IV collagenase (P08253 whole entry): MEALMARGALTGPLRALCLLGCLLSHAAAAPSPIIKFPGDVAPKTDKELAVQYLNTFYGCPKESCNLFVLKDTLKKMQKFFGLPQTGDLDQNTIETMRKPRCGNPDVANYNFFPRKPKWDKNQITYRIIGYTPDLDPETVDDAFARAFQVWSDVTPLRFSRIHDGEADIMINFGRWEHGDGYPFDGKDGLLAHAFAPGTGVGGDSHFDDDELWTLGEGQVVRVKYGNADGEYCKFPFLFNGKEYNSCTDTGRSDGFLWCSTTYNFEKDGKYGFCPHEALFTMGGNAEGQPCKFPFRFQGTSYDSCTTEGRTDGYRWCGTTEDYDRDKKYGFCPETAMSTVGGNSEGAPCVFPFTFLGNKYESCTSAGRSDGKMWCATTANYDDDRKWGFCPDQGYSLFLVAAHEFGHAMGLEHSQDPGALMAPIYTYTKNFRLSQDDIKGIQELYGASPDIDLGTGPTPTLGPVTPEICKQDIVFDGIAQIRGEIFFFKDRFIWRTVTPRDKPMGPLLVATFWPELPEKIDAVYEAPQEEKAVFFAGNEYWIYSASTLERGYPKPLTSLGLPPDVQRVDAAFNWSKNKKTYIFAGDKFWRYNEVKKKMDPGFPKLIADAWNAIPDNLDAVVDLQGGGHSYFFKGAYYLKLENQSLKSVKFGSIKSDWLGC

Row | Structure (SMILES) | IC50 [1] | further results
1 | CC#CCOc1ccc(S(=O)(=O)NC(Cc2c[nH]c3ccc(OC)cc23)C(=O)O)cc1 (single isomer, unassigned; enantiomer 1) | 10100 nM | –
2 | CC#CCOc1ccc(S(=O)(=O)NC(Cc2cn(Cc3cccc(OC)c3)c3ccc(OC)cc23)C(=O)O)cc1 (racemic) | 2240 nM | –
3 | CC#CCOc1ccc(S(=O)(=O)NC(Cc2c[nH]c3ccc(OCc4ccccc4)cc23)C(=O)O)cc1 (single isomer, unassigned; enantiomer 2) | 370 nM | IC50 [2]: 3270 nM; IC50 (Collagenase 3): 4440 nM; IC50 [3]: 19700 nM; IC50 (Interstitial collagenase): > 50000 nM
4 | CC#CCOc1ccc(S(=O)(=O)NC(Cc2c(C)n(Cc3ccc(C#N)cc3)c3ccc(OC)cc23)C(=O)O)cc1 (racemic) | 470 nM | –
5 | CC#CCOc1ccc(S(=O)(=O)N[C@H](Cc2cn(C)c3ccccc23)C(=O)O)cc1 | 1430 nM | –
6 | CC#CCOc1ccc(S(=O)(=O)NC(Cc2c(C)n(Cc3cccc(C#N)c3)c3ccc(OC)cc23)C(=O)O)cc1 (configuration not stated) | 410 nM | –
7 | CC#CCOc1ccc(S(=O)(=O)NC(Cc2cn(CC(C)C)c3ccc(OC)cc23)C(=O)O)cc1 (racemic) | 1230 nM | –
8 | CC#CCOc1ccc(S(=O)(=O)NC(Cc2c[nH]c3ccc(F)cc23)C(=O)O)cc1 (racemic) | 1560 nM | –
9 | CC#CCOc1ccc(S(=O)(=O)NC(Cc2cn(Cc3ccccc3)c3ccc(C(=O)O)cc23)C(=O)O)cc1 (racemic) | > 100000 nM | –
10 | CC#CCOc1ccc(S(=O)(=O)NC(Cc2c[nH]c3ccc(Br)cc23)C(=O)O)cc1 (racemic) | 630 nM | –
11 | CC#CCOc1ccc(S(=O)(=O)NC(Cc2c(C)n(Cc3cccc(OC)c3)c3ccc(OC)cc23)C(=O)O)cc1 (racemic) | 280 nM | –
12 | CC#CCOc1ccc(S(=O)(=O)NC(Cc2cn(Cc3ccc4c(c3)OCO4)c3ccc(OC)cc23)C(=O)O)cc1 (racemic) | 1500 nM | –
13 | CC#CCOc1ccc(S(=O)(=O)NC(Cc2c(C)n(CC(C)C)c3ccc(Cl)cc23)C(=O)O)cc1 (racemic) | 300 nM | –
14 | CC#CCOc1ccc(S(=O)(=O)NC(Cc2c(C)n(Cc3ccccc3F)c3ccc(OC)cc23)C(=O)O)cc1 (racemic) | 300 nM | –
15 | CC#CCOc1ccc(S(=O)(=O)NC(Cc2c[nH]c3cc(F)ccc23)C(=O)O)cc1 (racemic) | 2960 nM | –
16 | CC#CCOc1ccc(S(=O)(=O)NC(Cc2cn(Cc3ccccc3F)c3ccc(OC)cc23)C(=O)O)cc1 (racemic) | 2240 nM | –
17 | CC#CCOc1ccc(S(=O)(=O)N[C@H](Cc2cn(CC3CCC3)c3ccccc23)C(=O)O)cc1 | 1710 nM | –

Row | Structure (SMILES) | IC50 [1] | further results
18 | CC#CCOc1ccc(S(=O)(=O)NC(Cc2cn(CC)c3ccc(C(=O)O)cc23)C(=O)O)cc1 (racemic) | > 100000 nM | –
19 | CC#CCOc1ccc(S(=O)(=O)NC(Cc2c[nH]c3ccc(O)cc23)C(=O)O)cc1 (racemic) | 1610 nM | –
20 | CC#CCOc1ccc(S(=O)(=O)NC(Cc2c[nH]c3ccc(OC)cc23)C(=O)O)cc1 (single isomer, unassigned; enantiomer 2) | 140 nM | IC50 [2]: 1270 nM; IC50 (Collagenase 3): 13600 nM; IC50 [3]: 20700 nM; IC50 [4]: 57000 nM; IC50 (Interstitial collagenase): > 50000 nM
21 | CC#CCOc1ccc(S(=O)(=O)NC(Cc2c[nH]c3cc(C)ccc23)C(=O)O)cc1 (racemic) | 1570 nM | –
22 | CC#CCOc1ccc(S(=O)(=O)NC(Cc2c(C)n(Cc3cccc(F)c3)c3ccc(OC)cc23)C(=O)O)cc1 (racemic) | 340 nM | –
23 | CC#CCOc1ccc(S(=O)(=O)N[C@H](Cc2cn(Cc3ccc(OC)cc3)c3ccccc23)C(=O)O)cc1 | – | IC50 [4]: > 100000 nM; IC50 (Interstitial collagenase): > 50000 nM
24 | CC#CCOc1ccc(S(=O)(=O)NC(Cc2c(C)n(Cc3ccc(Cl)cc3)c3ccc(Cl)cc23)C(=O)O)cc1 (racemic) | 330 nM | –
25 | CC#CCOc1ccc(S(=O)(=O)NC(Cc2c(C)n(Cc3ccccc3)c3ccc(OC)cc23)C(=O)O)cc1 (racemic) | 250 nM | –
26 | CC#CCOc1ccc(S(=O)(=O)NC(Cc2c[nH]c3ccc(OCc4ccccc4)cc23)C(=O)O)cc1 (stereo in doubt; 11h) | 6980 nM | –
27 | CC#CCOc1ccc(S(=O)(=O)NC(Cc2cn(C)c3ccc(C(=O)O)cc23)C(=O)O)cc1 (racemic) | > 100000 nM | –
28 | CC#CCOc1ccc(S(=O)(=O)N[C@H](Cc2c[nH]c3ccc(C)cc23)C(=O)O)cc1 | – | IC50 [2]: 270 nM; IC50 (Collagenase 3): 1810 nM; IC50 [3]: 6820 nM; IC50 [4]: 7800 nM; IC50 (Interstitial collagenase): > 50000 nM
29 | CC#CCOc1ccc(S(=O)(=O)NC(Cc2c(C)n(Cc3ccc(OC)cc3)c3ccc(Cl)cc23)C(=O)O)cc1 (racemic) | 190 nM | –
30 | CC#CCOc1ccc(S(=O)(=O)NC(Cc2c(C)n(C)c3ccc(OC)cc23)C(=O)O)cc1 (racemic) | 900 nM | –
31 | CC#CCOc1ccc(S(=O)(=O)NC(Cc2c(C)n(Cc3ccc(F)cc3)c3ccc(OC)cc23)C(=O)O)cc1 (racemic) | 320 nM | –
32 | CC#CCOc1ccc(S(=O)(=O)NC(Cc2c(C)n(Cc3ccc(Cl)cc3)c3ccc(OC)cc23)C(=O)O)cc1 (racemic) | 290 nM | –
33 | CC#CCOc1ccc(S(=O)(=O)NC(Cc2cn(Cc3ccc(OC)cc3)c3ccc(C)cc23)C(=O)O)cc1 (racemic) | 890 nM | –

Source: ChEMBL document CHEMBL1137760, “Synthesis and activity of tryptophan sulfonamide derivatives as novel non-hydroxamate TNF-alpha converting enzyme (TACE) inhibitors” (Bioorg Med Chem, 2009)
